The subject of series [1] is PC from B. Thermodenitrificans. The following applies: read-out: apparent Km for HCO3^−; presence of acetyl-CoA; ref [32]; cited from earlier work.
Series [2] concerns wild-type RePC (pyruvate carboxylase from R. etli). The series can be described thus: Pyruvate carboxylation activity, malate dehydrogenase coupled assay. It is filed as biochemical, Rhizobium etli.
In series [3] the target is sheep kidney PC. The following applies: noncompetitive with respect to MgATP, full forward reaction; ref [22]; cited from earlier work.
Series [4] deals with wild-type RePC (Rhizobium etli, UniProt Q2K340). It is filed as biochemical.
Substrate in series [5]: CC(=O)C(=O)O
The series can be described thus: purified protein, by the assay type. The following applies: other: (−) acetyl-CoA, 15 mM HCO3^−.

Where [6] appears, read: labelled substrate varied, others saturating, pH 7.5, 25° C, 0.25 mM acetyl-CoA.
Where [7] appears, read: extrapolated to saturating phosphonoacetate.

In the case of `O=C(O)O` [HCO3^−], the Km in series [1] was 16 mM. Further, in series [2] (setting [6]), the Michaelis constant (Km) was 10.8 ± 0.4 mM and the kcat was found to be 11.7 ± 0.333 s⁻¹.
`O=C(O)CP(=O)(O)O` [phosphonoacetate]: the inhibition constant (Ki) in series [3] is 500 µM. In addition, in series [4], the “fold lower Kii for MgADP phosphorylation than for pyruvate carboxylation” value was 890 fold; the “fold lower Kis for MgADP phosphorylation than for pyruvate carboxylation” value amounted to 100 fold; the “type of inhibition with respect to carbamoyl phosphate” value is listed as “hyperbolic, noncompetitive inhibition”. In series [4] (setting [7]), the “V/Km at saturating phosphonoacetate, % of the uninhibited reaction” value is on record as 1.5% and the “Vmax at saturating phosphonoacetate, % of the uninhibited reaction” value is given as 1%. Moreover, the “Kii (intercept inhibition constant)” value in series [4] (hyperbolic noncompetitive with respect to carbamoyl phosphate, eqn (10)) is recorded as 0.021 ± 0.001 mM. Also, the “type of inhibition with respect to MgATP” value in series [2] is reported as “noncompetitive”. Besides, the “Kii (intercept inhibition constant)” value in series [2] (linear noncompetitive with respect to MgATP, eqn (9)) is 18 ± 7 mM.

B1: wild-type RePC (Rhizobium etli CFN 42) (protein)
chain: MPISKILVANRSEIAIRVFRAANELGIKTVAIWAEEDKLALHRFKADESYQVGRGPHLARDLGPIESYLSIDEVIRVAKLSGADAIHPGYGLLSESPEFVDACNKAGIIFIGPKADTMRQLGNKVAARNLAISVGVPVVPATEPLPDDMAEVAKMAAAIGYPVMLKASWGGGGRGMRVIRSEADLAKEVTEAKREAMAAFGKDEVYLEKLVERARHVESQILGDTHGNVVHLFERDCSVQRRNQKVVERAPAPYLSEAQRQELAAYSLKIAGATNYIGAGTVEYLMDADTGKFYFIEVNPRIQVEHTVTEVVTGIDIVKAQIHILDGAAIGTPQSGVPNQEDIRLNGHALQCRVTTEDPEHNFIPDYGRITAYRSASGFGIRLDGGTSYSGAIITRYYDPLLVKVTAWAPNPLEAISRMDRALREFRIRGVATNLTFLEAIIGHPKFRDNSYTTRFIDTTPELFQQVKRQDRATKLLTYLADVTVNGHPEAKDRPKPLENAARPVVPYANGNGVKDGTKQLLDTLGPKKFGEWMRNEKRVLLTDTTMRDGHQSLLATRMRTYDIARIAGTYSHALPNLLSLECWGGATFDVSMRFLTEDPWERLALIREGAPNLLLQMLLRGANGVGYTNYPDNVVKYFVRQAAKGGIDLFRVFDCLNWVENMRVSMDAIAEENKLCEAAICYTGDILNSARPKYDLKYYTNLAVELEKAGAHIIAVKDMAGLLKPAAAKVLFKALREATGLPIHFHTHDTSGIAAATVLAAVEAGVDAVDAAMDALSGNTSQPCLGSIVEALSGSERDPGLDPAWIRRISFYWEAVRNQYAAFESDLKGPASEVYLHEMPGGQFTNLKEQARSLGLETRWHQVAQAYADANQMFGDIVKVTPSSKVVGDMALMMVSQDLTVADVVSPDREVSFPESVVSMLKGDLGQPPSGWPEALQKKALKGEKPYTVRPGSLLKEADLDAERKVIEKKLEREVSDFEFASYLMYPKVFTDFALASDTYGPVSVLPTPAYFYGLADGEELFADIEKGKTLVIVNQAVSATDSQGMVTVFFELNGQPRRIKVPDRAHGATGAAVRRKAEPGNAAHVGAPMPGVISRVFVSSGQAVNAGDVLVSIEAMKMETAIHAEKDGTIAEVLVKAGDQIDAKDLLAVYGG
B1: in series [5], the Km is reported as 0.013 ± 0.002 mM and the catalytic constant (kcat) is 0.0253 ± 0.0005 s⁻¹.

For orientation: Km means the concentration of substrate that gives half-maximal velocity. One may read the kcat as the maximal rate divided by the concentration of active sites. In general, Ki refers to a measure of affinity in units of concentration, obtained from inhibition or displacement.

The record behind these values is paper PMC3210919 (Biochemistry, 2011).
